Data published in US10231954B2, “Neurodegenerative therapies” (LYTIX BIOPHARMA AS, priority 2014, dated 2019).

Key:
Type in all cases: biochemical
[1] = target: T1, LKB1 (Homo sapiens, UniProt Q15831); assay: Kinase profiling LKB1; conditions: 100 micromolar inhibitor concentration, 100 is no change; for remaining activity at 100 µM: read-out: residual kinase activity, LKB1
T1 sequence (Q15831 1-433): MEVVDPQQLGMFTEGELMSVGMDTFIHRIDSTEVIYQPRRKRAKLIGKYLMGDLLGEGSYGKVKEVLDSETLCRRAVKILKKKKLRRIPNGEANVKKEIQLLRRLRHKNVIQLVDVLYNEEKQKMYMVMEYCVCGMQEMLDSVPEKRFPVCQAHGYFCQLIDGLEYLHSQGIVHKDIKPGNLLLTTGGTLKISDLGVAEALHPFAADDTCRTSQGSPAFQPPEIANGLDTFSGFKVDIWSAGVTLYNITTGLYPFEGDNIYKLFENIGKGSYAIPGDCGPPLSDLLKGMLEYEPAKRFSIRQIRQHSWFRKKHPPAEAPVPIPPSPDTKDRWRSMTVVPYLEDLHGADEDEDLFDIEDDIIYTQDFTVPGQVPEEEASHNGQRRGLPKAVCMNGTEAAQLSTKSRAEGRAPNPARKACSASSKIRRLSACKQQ
T1 sequence (Q7RTN6 1-431 partner): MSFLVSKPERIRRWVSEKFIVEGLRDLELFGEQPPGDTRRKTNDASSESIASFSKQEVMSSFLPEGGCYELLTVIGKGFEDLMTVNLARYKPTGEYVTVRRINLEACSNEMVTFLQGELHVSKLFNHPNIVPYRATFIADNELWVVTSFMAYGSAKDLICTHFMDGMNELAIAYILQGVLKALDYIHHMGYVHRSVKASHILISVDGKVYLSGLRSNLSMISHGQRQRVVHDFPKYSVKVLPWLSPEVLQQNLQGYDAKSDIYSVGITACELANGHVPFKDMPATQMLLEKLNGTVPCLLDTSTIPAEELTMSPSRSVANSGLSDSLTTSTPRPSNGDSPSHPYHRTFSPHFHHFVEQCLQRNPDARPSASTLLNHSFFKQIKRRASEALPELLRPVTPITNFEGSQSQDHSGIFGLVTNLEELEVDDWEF
T1 sequence (Q9Y376 1-341 partner): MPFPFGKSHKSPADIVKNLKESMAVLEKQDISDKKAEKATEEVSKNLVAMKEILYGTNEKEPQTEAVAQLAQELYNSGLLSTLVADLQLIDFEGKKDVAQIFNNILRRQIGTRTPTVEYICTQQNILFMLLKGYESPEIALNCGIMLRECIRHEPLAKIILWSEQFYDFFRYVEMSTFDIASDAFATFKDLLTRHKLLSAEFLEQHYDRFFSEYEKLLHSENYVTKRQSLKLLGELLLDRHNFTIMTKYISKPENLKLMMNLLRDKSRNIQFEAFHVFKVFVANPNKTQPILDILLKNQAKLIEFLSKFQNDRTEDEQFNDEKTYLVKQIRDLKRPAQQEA
From the text: (§1) Any value less that 25 is considered to be highly significant inhibition.

[2] = target: RSK1 (Homo sapiens, UniProt Q15418); assay: Kinase profiling RSK1; conditions: 100 micromolar inhibitor concentration, 100 is no change; for remaining activity at 100 µM: read-out: residual kinase activity, RSK1
From the text: as §1

[3] = target: ERK1 (Homo sapiens, UniProt P27361); assay: Kinase profiling ERK1; conditions: 100 micromolar inhibitor concentration, 100 is no change; for remaining activity at 100 µM: read-out: residual kinase activity, ERK1
From the text: as §1

[4] = test system: CK2; assay: Kinase profiling CK2; conditions: 100 micromolar inhibitor concentration; 100 is no change
From the text: as §1

[5] = target: CHK2 (Homo sapiens, UniProt O96017); assay: Kinase profiling CHK2; conditions: 100 micromolar inhibitor concentration, 100 is no change; for remaining activity at 100 µM: read-out: residual kinase activity, CHK2
From the text: as §1

[6] = target: EPH-A2 (Homo sapiens, UniProt P29317); assay: Kinase profiling EPH-A2; conditions: 100 micromolar inhibitor concentration, 100 is no change; for remaining activity at 100 µM: read-out: residual kinase activity, EPH-A2
From the text: as §1

[7] = target: RIPK2 (Homo sapiens, UniProt O43353); assay: Kinase profiling RIPK2; conditions: 100 micromolar inhibitor concentration, 100 is no change; for remaining activity at 100 µM: read-out: residual kinase activity, RIPK2
From the text: as §1

[8] = target: T2, PKD1 (Homo sapiens, UniProt Q15139); assay: Kinase profiling PKD1; conditions: 100 micromolar inhibitor concentration, 100 is no change; for remaining activity at 100 µM: read-out: residual kinase activity, PKD1
T2 sequence (Q15139 1-912): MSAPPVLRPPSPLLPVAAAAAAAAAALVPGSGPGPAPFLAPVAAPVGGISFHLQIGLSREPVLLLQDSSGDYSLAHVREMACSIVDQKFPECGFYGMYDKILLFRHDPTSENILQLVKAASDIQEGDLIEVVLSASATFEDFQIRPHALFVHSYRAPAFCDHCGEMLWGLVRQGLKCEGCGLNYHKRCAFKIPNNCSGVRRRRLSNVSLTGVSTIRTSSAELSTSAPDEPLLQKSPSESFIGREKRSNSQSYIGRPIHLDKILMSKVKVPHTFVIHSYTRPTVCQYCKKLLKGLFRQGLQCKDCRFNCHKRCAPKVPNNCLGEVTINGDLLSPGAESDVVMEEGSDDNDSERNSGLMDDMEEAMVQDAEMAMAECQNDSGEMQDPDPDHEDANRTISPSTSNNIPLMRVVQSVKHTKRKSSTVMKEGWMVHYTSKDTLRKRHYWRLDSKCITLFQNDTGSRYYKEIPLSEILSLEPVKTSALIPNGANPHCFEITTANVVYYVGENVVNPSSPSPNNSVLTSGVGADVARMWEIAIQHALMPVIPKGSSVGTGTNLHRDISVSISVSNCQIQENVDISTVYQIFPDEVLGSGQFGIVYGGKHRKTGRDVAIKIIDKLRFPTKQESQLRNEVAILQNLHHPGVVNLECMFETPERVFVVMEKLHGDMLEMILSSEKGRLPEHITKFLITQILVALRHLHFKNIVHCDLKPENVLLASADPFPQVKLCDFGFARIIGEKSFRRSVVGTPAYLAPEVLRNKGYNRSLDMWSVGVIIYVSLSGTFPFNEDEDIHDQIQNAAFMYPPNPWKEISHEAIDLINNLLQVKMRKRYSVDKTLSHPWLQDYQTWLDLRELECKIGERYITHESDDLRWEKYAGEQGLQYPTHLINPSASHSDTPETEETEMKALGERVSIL
From the text: as §1

[9] = target: EF2K (Homo sapiens, UniProt O00418); assay: Kinase profiling EF2K; conditions: 100 micromolar inhibitor concentration, 100 is no change; for remaining activity at 100 µM: read-out: residual kinase activity, EF2K
From the text: as §1

[10] = target: TIE2 (Homo sapiens, UniProt Q02763); assay: Kinase profiling TIE2; conditions: 100 micromolar inhibitor concentration, 100 is no change; for remaining activity at 100 µM: read-out: residual kinase activity, TIE2
From the text: as §1

[11] = target: MLK1 (Homo sapiens, UniProt P80192); assay: Kinase profiling MLK1; conditions: 100 micromolar inhibitor concentration, 100 is no change; for remaining activity at 100 µM: read-out: residual kinase activity, MLK1
From the text: as §1

[12] = target: JNK3 (Homo sapiens, UniProt P53779); assay: Kinase profiling JNK3; conditions: 100 micromolar inhibitor concentration, 100 is no change; for remaining activity at 100 µM: read-out: residual kinase activity, JNK3
From the text: as §1

[13] = target: BTK (Homo sapiens, UniProt Q06187); assay: Kinase profiling BTK; conditions: 100 micromolar inhibitor concentration, 100 is no change; for remaining activity at 100 µM: read-out: residual kinase activity, BTK
From the text: as §1

[14] = target: RSK2 (Homo sapiens, UniProt P51812); assay: Kinase profiling RSK2; conditions: 100 micromolar inhibitor concentration, 100 is no change; for remaining activity at 100 µM: read-out: residual kinase activity, RSK2
From the text: as §1

Sequence of RSK1 (Q15418 whole entry, species assumed): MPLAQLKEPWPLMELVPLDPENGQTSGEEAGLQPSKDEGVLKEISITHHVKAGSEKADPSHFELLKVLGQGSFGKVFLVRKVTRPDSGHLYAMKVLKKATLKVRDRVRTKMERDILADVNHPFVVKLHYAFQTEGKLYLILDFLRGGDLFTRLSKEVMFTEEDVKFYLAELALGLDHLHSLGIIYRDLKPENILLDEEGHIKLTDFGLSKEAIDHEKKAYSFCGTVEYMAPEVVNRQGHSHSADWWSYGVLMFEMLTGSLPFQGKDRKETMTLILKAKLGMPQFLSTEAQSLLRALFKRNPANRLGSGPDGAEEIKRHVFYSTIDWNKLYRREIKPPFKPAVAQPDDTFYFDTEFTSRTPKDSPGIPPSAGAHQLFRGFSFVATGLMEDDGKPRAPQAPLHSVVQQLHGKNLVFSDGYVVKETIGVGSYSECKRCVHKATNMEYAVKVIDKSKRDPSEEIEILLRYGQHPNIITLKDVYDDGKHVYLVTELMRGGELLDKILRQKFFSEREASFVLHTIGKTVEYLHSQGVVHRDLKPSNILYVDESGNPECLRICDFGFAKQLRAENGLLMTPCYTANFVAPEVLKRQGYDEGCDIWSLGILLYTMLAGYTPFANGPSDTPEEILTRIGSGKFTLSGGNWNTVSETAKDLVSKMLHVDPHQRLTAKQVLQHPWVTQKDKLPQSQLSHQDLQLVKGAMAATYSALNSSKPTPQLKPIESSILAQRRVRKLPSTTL
Sequence of BTK (Q06187 whole entry, species assumed): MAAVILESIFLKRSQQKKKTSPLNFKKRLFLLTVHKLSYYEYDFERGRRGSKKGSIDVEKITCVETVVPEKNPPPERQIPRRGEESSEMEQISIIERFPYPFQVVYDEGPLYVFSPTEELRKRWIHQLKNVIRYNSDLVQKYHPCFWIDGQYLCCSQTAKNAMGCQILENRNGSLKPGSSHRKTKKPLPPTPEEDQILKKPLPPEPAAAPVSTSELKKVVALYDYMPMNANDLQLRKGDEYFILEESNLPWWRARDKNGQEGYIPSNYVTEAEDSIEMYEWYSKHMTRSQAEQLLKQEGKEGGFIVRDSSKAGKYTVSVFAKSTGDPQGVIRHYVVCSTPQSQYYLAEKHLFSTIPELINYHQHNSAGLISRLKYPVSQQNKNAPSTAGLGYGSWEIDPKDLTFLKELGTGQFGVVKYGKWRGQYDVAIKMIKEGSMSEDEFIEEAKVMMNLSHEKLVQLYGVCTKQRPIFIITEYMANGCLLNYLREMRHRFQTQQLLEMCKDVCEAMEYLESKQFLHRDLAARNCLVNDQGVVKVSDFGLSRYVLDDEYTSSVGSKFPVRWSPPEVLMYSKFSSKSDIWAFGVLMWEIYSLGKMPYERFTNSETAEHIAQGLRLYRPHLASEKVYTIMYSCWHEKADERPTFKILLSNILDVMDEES
Sequence of EPH-A2 (P29317 24-976, species assumed): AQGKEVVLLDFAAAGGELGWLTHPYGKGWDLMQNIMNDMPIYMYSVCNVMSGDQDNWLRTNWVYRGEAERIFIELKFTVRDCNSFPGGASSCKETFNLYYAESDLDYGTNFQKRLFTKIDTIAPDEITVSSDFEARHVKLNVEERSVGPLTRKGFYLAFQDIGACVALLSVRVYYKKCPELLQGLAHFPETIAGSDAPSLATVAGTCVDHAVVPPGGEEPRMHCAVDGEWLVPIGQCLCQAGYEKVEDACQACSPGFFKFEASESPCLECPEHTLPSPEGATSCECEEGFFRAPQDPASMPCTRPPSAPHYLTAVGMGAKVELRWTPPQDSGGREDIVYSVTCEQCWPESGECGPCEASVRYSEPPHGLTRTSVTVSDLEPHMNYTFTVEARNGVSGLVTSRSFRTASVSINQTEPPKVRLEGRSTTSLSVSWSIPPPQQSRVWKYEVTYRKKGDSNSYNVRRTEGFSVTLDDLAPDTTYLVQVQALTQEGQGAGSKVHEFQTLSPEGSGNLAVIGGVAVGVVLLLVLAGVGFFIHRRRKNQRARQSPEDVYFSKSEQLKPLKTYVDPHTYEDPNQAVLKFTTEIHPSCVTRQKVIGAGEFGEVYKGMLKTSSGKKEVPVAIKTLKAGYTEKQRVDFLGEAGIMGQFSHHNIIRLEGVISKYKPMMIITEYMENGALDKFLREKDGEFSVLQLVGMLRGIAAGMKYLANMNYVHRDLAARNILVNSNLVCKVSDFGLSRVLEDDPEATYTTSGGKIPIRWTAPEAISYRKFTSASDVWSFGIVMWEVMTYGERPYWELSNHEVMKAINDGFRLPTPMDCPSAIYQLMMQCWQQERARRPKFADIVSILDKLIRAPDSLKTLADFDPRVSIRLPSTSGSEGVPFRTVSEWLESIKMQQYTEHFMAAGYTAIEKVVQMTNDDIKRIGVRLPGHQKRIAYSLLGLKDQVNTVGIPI
Sequence of RIPK2 (O43353 whole entry, species assumed): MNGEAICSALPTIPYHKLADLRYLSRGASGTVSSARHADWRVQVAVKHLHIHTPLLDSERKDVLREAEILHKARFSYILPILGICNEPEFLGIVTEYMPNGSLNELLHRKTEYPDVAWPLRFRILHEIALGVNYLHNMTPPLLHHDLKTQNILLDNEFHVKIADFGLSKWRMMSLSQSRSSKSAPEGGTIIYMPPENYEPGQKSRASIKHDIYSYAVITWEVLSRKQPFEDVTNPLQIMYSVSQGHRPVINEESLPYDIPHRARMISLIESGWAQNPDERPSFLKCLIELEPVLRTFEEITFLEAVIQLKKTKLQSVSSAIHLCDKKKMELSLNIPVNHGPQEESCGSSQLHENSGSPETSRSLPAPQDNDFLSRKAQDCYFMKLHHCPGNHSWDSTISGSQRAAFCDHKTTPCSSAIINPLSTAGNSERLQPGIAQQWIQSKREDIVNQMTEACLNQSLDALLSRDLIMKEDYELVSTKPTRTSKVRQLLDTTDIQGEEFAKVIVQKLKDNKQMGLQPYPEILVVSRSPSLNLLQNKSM
Sequence of JNK3 (P53779 whole entry, species assumed): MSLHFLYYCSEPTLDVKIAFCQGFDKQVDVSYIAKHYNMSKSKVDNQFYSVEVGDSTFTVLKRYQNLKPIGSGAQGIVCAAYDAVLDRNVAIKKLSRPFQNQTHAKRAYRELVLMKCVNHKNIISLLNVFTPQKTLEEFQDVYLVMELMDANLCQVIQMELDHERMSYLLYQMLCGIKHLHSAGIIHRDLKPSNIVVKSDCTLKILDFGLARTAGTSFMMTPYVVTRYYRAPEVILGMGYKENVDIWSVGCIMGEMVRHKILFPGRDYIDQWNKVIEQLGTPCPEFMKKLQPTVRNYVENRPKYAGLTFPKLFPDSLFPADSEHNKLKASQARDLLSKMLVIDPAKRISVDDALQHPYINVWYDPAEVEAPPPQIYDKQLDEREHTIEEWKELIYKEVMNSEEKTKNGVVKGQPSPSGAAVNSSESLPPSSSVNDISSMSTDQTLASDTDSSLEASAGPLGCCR
Sequence of CHK2 (O96017 whole entry, species assumed): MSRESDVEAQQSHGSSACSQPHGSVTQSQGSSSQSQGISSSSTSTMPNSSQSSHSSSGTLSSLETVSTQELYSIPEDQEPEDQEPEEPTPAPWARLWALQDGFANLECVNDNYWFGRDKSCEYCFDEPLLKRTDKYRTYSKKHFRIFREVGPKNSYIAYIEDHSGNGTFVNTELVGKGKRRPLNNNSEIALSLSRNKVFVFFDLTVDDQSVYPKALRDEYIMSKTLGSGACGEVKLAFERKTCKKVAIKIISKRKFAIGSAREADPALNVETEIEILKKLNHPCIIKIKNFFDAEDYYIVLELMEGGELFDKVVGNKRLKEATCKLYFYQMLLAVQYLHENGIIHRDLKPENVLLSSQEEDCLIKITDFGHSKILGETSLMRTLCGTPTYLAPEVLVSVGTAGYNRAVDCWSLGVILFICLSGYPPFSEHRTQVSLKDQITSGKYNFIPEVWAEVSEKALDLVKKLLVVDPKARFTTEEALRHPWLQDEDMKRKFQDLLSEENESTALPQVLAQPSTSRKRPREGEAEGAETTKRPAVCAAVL
Sequence of MLK1 (P80192 whole entry, species assumed): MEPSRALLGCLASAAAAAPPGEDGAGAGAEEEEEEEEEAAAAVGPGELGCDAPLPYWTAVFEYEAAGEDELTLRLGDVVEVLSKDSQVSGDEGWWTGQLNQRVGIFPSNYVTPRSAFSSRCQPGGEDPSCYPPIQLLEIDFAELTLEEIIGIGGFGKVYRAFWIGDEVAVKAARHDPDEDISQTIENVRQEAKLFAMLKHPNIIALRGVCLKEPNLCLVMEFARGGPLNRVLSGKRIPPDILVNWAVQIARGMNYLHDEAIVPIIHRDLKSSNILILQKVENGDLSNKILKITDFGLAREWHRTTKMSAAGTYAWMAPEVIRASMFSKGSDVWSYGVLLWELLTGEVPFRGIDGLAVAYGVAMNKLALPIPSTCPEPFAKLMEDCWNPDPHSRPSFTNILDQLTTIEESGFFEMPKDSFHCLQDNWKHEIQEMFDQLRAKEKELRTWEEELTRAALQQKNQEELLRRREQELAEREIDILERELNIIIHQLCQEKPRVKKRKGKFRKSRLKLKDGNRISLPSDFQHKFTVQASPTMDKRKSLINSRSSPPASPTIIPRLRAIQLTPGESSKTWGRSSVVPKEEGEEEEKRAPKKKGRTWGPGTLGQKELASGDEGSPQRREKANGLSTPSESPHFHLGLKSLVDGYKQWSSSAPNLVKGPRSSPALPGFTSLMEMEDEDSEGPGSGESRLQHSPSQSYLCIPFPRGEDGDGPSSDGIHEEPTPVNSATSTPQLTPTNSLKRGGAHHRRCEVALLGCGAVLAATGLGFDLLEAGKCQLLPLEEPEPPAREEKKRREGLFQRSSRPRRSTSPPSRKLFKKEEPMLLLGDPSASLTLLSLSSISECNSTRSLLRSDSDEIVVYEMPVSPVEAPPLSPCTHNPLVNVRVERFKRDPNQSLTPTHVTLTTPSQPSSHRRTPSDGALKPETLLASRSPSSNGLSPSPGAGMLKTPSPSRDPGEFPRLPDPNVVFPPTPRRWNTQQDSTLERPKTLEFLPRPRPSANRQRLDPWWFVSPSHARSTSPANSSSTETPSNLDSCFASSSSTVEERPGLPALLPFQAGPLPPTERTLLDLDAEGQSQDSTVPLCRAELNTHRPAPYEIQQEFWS

Row | SMILES | residual kinase activity, LKB1 [1] | residual kinase activity, RSK1 [2] | residual kinase activity, ERK1 [3] | residual kinase activity, CK2 [4] | residual kinase activity, CHK2 [5] | residual kinase activity, EPH-A2 [6] | residual kinase activity, RIPK2 [7] | residual kinase activity, PKD1 [8] | residual kinase activity, EF2K [9] | residual kinase activity, TIE2 [10] | residual kinase activity, MLK1 [11] | residual kinase activity, JNK3 [12] | residual kinase activity, BTK [13] | residual kinase activity, RSK2 [14] | remaining activity at 100 µM [1] [%] | remaining activity at 100 µM [2] [%] | remaining activity at 100 µM [3] [%] | remaining activity at 100 µM [5] [%] | remaining activity at 100 µM [6] [%] | remaining activity at 100 µM [7] [%] | other results
1 | O=C(Nc1nc2ccc(O)cc2s1)c1ccccc1 [Compound 03-60] | 68 | 28 | 67 | 16 | 5 | 77 | 12 | 47 | 107 | 41 | 5 | 48 | 59 | 34 |  |  |  |  |  |  | 
2 | CC(=O)Nc1nc2cc(C(F)(F)F)ccc2s1 [Compound 03-73] |  |  |  | 105 |  |  |  |  |  |  |  |  |  |  | 98 | 89 | 83 | 78 | 99 | 48 | remaining activity at 100 µM [8]: 83%; remaining activity at 100 µM [9]: 109%; remaining activity at 100 µM [10]: 92%; remaining activity at 100 µM [11]: 75%; remaining activity at 100 µM [12]: 83%; remaining activity at 100 µM [13]: 93%; remaining activity at 100 µM [14]: 83%
3 | CC(=O)Nc1nc2cc(C)ccc2s1 [Compound 03-76] | 96 | 78 | 91 | 75 | 65 | 93 | 60 | 89 | 110 | 95 | 57 | 76 | 92 | 96 |  |  |  |  |  |  | 
4 | CC(=O)Nc1nc2cc(F)ccc2s1 [Compound 03-77] |  |  |  | 81 |  |  |  |  |  |  |  |  |  |  | 85 | 72 | 90 | 63 | 106 | 64 | remaining activity at 100 µM [8]: 66%; remaining activity at 100 µM [9]: 99%; remaining activity at 100 µM [10]: 112%; remaining activity at 100 µM [11]: 58%; remaining activity at 100 µM [12]: 68%; remaining activity at 100 µM [13]: 105%; remaining activity at 100 µM [14]: 83%
5 | O=C(Nc1nc2ccc(O)cc2s1)c1ccncc1 [Compound 08-42] | 65 | 47 | 84 | 50 | 22 | 77 | 30 | 63 | 79 | 80 | 33 | 65 | 59 | 62 |  |  |  |  |  |  | 
6 | O=C(Nc1nc2ccc(O)cc2s1)c1cccnc1 [Compound 08-44] | 45 | 41 | 81 | 19 | 16 | 81 | 21 | 54 | 67 | 81 | 13 | 64 | 54 | 56 |  |  |  |  |  |  | 
